# Results as given in ChEMBL document CHEMBL1136708, “Structure-based design of inhibitors of human L-xylulose reductase modelled into the active site of the enzyme” (Bioorg Med Chem Lett, 2003).
# Assays:
# [1] = target: L-xylulose reductase (Homo sapiens) (UniProt Q7Z4W1)
# [2] = target: L-xylulose reductase (Homo sapiens) (UniProt Q7Z4W1); assay: Protein interaction energy by using binding affinity towards human L-xylulose reductase enzyme
# L-xylulose reductase (Homo sapiens), sequence (Q7Z4W1 whole entry): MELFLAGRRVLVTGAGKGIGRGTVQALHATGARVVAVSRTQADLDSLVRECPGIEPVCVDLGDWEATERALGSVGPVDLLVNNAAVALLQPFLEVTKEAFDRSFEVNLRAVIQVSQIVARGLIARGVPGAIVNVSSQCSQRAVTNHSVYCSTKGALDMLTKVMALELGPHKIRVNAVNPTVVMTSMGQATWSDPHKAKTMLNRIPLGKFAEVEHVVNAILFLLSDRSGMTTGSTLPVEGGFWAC
Structure (SMILES),Protein interaction energy [1],Protein interaction energy [2]
CCC(C(=O)O)c1ccc(O)cc1 (stereo not given),-51.6 kcal/M,–
CO[PH](O)(O)OCC(=O)O,-114 kcal/M,–
CCC(CO)C(=O)O (stereo not given),-41.4 kcal/M,–
CCC(C(=O)O)C(=O)O,–,-86.7 kcal/M
O=C(O)CCC(=O)O,-114 kcal/M,–
CCCC(=O)O,-40.4 kcal/M,–

# Further lines, results first:
Protein interaction energy [1],Protein interaction energy [2],Structure (SMILES)
-38.4 kcal/M,–,CCC(O)C(=O)O (stereo not given)
-163 kcal/M,–,O=C(O)CC(C(=O)O)C(=O)O
-87.4 kcal/M,–,CCCOP(=O)(O)O
-26.9 kcal/M,–,CCCc1ccc(O)cc1
